This experiment has as its target human tau protein 1N/4R isoform (htau34) (Homo sapiens, UniProt P10636). As to the kind of experiment: ThT fluorescence aggregation assay of purified tau. It counts as biochemical.

human tau protein 1N/4R isoform (htau34), sequence (P10636 1-412 isoform P10636-7): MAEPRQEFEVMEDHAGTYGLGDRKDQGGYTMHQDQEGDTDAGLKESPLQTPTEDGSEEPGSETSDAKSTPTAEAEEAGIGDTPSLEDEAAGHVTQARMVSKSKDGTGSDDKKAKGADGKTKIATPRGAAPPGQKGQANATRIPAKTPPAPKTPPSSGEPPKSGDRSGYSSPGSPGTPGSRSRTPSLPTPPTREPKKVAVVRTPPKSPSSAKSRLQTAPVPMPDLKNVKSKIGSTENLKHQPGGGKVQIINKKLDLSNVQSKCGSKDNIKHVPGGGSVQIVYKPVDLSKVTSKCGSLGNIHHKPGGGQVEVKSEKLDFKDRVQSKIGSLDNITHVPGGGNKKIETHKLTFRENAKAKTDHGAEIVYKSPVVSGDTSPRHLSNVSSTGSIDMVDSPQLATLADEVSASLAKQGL

Usually IC50 stands for the midpoint of a concentration-inhibition curve. A high value points to weaker potency in that assay. Consider `CC(/C=C/C=C(\C)C(=O)O[C@@H]1O[C@H](CO[C@@H]2O[C@H](CO)[C@@H](O)[C@H](O)[C@H]2O)[C@@H](O)[C@H](O)[C@H]1O)=C\C=C\C=C(C)\C=C\C=C(/C)C(=O)O[C@@H]1O[C@H](CO[C@@H]2O[C@H](CO)[C@@H](O)[C@H](O)[C@H]2O)[C@@H](O)[C@H](O)[C@H]1O` [crocin], for which half-maximal inhibition (IC50) required 102 µM.

The values are drawn from publication PMC4475657 (Iranian Journal of Basic Medical Sciences, 2015).
